For data set [1], the target named is RNA-directed RNA polymerase (Hepacivirus hominis, UniProt O39930, P495L). In words: Inhibition of Hepatitis C virus NS5B RNA-dependent RNA polymerase P495L mutant.
Data set [2] can be described thus: Inhibition of Hepatitis C virus NS5B RNA-dependent RNA polymerase. More on the design: species or system Hepacivirus hominis.
Data set [3] deals with Hepatitis C virus. In words: Antiviral activity against Hepatitis C virus genotype 1b infected in human HuH7 cells by luciferase reporter gene analysis. The note with it: Huh-7. It counts as functional, organism-based, Hepacivirus hominis. In general terms: Reporter assays use an easily measured gene product as a stand-in for the process of interest.
Data set [4] is described as follows: Cytotoxicity against human HuH7 cells. It counts as cell-based. The settings on record: Huh-7 cells.
For data set [5], the system named is Hepatitis C virus. In words: Antiviral activity against Hepatitis C virus genotype 1a infected in human HuH7 cells by luciferase reporter gene analysis. Type of data set: functional, organism-based, Hepacivirus hominis. The note with it: subtype 1a, Huh-7.
A short description of data set [6]: Clearance in rat at 2 mg/kg, iv. The note with it: in vivo. More on the design: dose 2 mg/kg, route intravenous. It counts as ADME, organism-based.
A short description of data set [7]: AUC in rat. It counts as ADME, organism-based. The settings on record: plasma.
Data set [8] can be described thus: Half life in rat at 2 mg/kg, iv. It counts as ADME, organism-based. Details: dose 2 mg/kg, route intravenous. The settings on record: in vivo.
A short description of data set [9]: Oral bioavailability in rat. The settings on record: in vivo. Type of data set: ADME, organism-based.

Each structure is given as a SMILES string.

Sequence of RNA-directed RNA polymerase (O39930 entry or part of it P495L): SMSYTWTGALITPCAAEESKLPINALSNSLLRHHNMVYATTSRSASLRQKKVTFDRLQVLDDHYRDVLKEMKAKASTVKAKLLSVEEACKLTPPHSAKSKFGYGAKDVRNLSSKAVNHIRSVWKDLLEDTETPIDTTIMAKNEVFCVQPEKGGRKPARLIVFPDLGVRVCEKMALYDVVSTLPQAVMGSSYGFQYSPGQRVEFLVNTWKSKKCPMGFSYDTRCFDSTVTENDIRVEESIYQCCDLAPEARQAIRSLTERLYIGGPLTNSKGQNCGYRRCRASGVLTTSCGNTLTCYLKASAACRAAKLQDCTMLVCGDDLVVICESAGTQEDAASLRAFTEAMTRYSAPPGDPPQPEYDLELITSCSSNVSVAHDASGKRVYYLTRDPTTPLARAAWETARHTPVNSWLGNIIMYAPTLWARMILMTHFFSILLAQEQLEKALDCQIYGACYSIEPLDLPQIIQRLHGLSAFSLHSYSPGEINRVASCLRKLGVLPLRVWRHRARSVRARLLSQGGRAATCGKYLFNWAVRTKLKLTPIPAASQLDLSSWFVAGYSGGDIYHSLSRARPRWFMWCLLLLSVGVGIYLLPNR

A word on the IC50: it is the concentration at which inhibition is half-maximal. Lower therefore signals greater potency in that assay. By EC50 is commonly meant the concentration at which the effect is half-maximal. Low values mean greater potency, high ones weaker potency. Usually CC50 stands for the concentration giving 50% cytotoxicity. With `O=C(O)/C=C/c1ccc(NC(=O)C2(NC(=O)c3ccc4c(C5CCCCC5)c5n(c4c3)CCCc3ccccc3-5)CCCC2)cc1`, the IC50 in [1] is 3390 nM; in data set [2], 34 nM. The figures for the 50% effective concentration (EC50) in the data set with Hepatitis C virus [3] and in the data set on Hepatitis C virus [5] were 14 nM and 71 nM, respectively. Further, the CC50 in data set [4] was determined as 30000 nM.
As to `O=C(O)/C=C/c1ccc(NC(=O)C2(NC(=O)c3ccc4c(C5CCCCC5)c5n(c4c3)CCCc3ocnc3-5)CCCC2)cc1`, the IC50 amounted to 5850 nM in data set [1] and 44 nM in data set [2]. Further, the concentration giving a half-maximal response (EC50) was determined as 78 nM in the data set on Hepatitis C virus [3] and 380 nM in the data set on Hepatitis C virus [5].
In the case of `O=C(O)/C=C/c1ccc(NC(=O)C2(NC(=O)c3ccc4c(C5CCCCC5)c5n(c4c3)CCCc3occc3-5)CCCC2)cc1`, the IC50 in data set [1] is 3720 nM; in data set [2] it was 34 nM. The EC50 with Hepatitis C virus [3] was below 69 nM.
`O=C(O)/C=C/c1ccc(NC(=O)C2(NC(=O)c3ccc4c(C5CCCCC5)c5n(c4c3)CCCc3nc[nH]c3-5)CCCC2)cc1` had an IC50 in [2] of 228 nM. Also, the EC50 came out at 738 nM in the data set on Hepatitis C virus [3] and 2510 nM in the data set with Hepatitis C virus [5].
For the molecule `Cc1nc2c(s1)CCCn1c-2c(C2CCCCC2)c2ccc(C(=O)NC3(C(=O)Nc4ccc(/C=C/C(=O)O)cc4)CCCC3)cc21`, the 50% inhibitory concentration (IC50) came to 5100 nM in data set [1] and 108 nM in [2]. Also, the half-maximal effective concentration (EC50) with Hepatitis C virus [3] is 683 nM; with Hepatitis C virus [5], 4190 nM.
For `Nc1nc2c(s1)CCCn1c-2c(C2CCCCC2)c2ccc(C(=O)NC3(C(=O)Nc4ccc(/C=C/C(=O)O)cc4)CCCC3)cc21`, the concentration for half-maximal inhibition (IC50) in data set [1] came out at 4840 nM; in [2] it was 250 nM. Besides, the EC50 in the data set on Hepatitis C virus [3] was determined as 1810 nM; with Hepatitis C virus [5] it was 3780 nM.
For `O=C(O)/C=C/c1ccc(NC(=O)C2(NC(=O)c3ccc4c(C5CCCCC5)c5n(c4c3)CCCc3nccnc3-5)CCCC2)cc1`, the half-maximal inhibitory concentration (IC50) worked out at 2280 nM in data set [1] and 24 nM in data set [2]. The EC50 in the data set with Hepatitis C virus [3] amounted to 24 nM; with Hepatitis C virus [5], 89 nM.
As a reminder, the clearance is the volume of plasma or blood freed of the substance per unit of time. Higher therefore signals efficient removal. In general, AUC refers to the area under the concentration-time curve, a measure of exposure. Usually half-life stands for the time needed for the level to fall by half in the phase considered. As a reminder, the bioavailability is dose-corrected exposure relative to a reference, in per cent. Higher therefore signals much systemic uptake. In data set [6], `O=C(O)/C=C/c1ccc(NC(=O)C2(NC(=O)c3ccc4c(C5CCCCC5)c5n(c4c3)CCCc3ncccc3-5)CCCC2)cc1` came in with a clearance of 7.2 mL/min/kg. Moreover, the IC50 is 1730 nM in data set [1] and 30 nM in [2]. The molecule further returned an exposure (AUC) in data set [7] of 1.7 µM·h. Moreover, in [8], the half-life was 1 h. Moreover, the figures for the EC50 in the data set with Hepatitis C virus [3] and in the data set on Hepatitis C virus [5] were 9 nM and 35 nM, respectively. The molecule also showed a half-maximal cytotoxic concentration (CC50) in data set [4] of 63000 nM. Besides, the bioavailability in data set [9] was 4%.
Consider `O=C(O)/C=C/c1ccc(NC(=O)C2(NC(=O)c3ccc4c(C5CCCCC5)c5n(c4c3)CC(=O)Nc3cccnc3-5)CCCC2)cc1`, for which, in data set [6], the clearance is 8.7 mL/min/kg. The values for the IC50 in [1] and in data set [2] were 3100 nM and 24 nM, respectively. For the same molecule, the EC50 came to 12 nM in the data set with Hepatitis C virus [3] and 39 nM in the data set with Hepatitis C virus [5]. The midpoint of cytotoxicity in [4], the CC50, lay at 45000 nM. In data set [9], this molecule came in with a bioavailability below 1%.
On to `O=C(O)/C=C/c1ccc(NC(=O)C2(NC(=O)c3ccc4c(C5CCCCC5)c5n(c4c3)CCOc3cccnc3-5)CCCC2)cc1`, for which the 50% inhibitory concentration (IC50) was above 600 nM in [1] and 15 nM in data set [2]. The 50% effective concentration (EC50) with Hepatitis C virus [3] is 22 nM; in the data set on Hepatitis C virus [5], 157 nM.
As for `O=C(O)/C=C/c1ccc(NC(=O)C2(NC(=O)c3ccc4c(C5CCCCC5)c5n(c4c3)CCOc3ncccc3-5)CCCC2)cc1`, the IC50 was found to be 2800 nM in [1] and 14 nM in data set [2]. The values for the EC50 with Hepatitis C virus [3] and in the data set on Hepatitis C virus [5] were 21 nM and 28 nM, respectively.
